Several values for one entry are separate records, joined by “and”; a condition that tells them apart may be missing. Identical values can stand only once.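 48-hour exposure; five concentrations; linearly interpolated endpoints. GI50 marks 50% less growth. TGI: total growth inhibition.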
Key:
Assay in all cases: NCI tumour cell line growth inhibition, 48 h
LXFL 529 NSCLC = test system: LXFL 529 NSCLC
RXF-631 renal = test system: RXF-631 renal
PC-3 prostate = test system: PC-3 prostate
SN12K1 renal = test system: SN12K1 renal
DMS 114 small cell lung = test system: DMS 114 small cell lung
P388/ADR leukemia = test system: P388/ADR leukemia
P388 leukemia = test system: P388 leukemia
786-0 renal = test system: 786-0 renal

COCCOCOC(C)(C)[C@H](CCO)O[Si](c1ccccc1)(c1ccccc1)C(C)(C)C
TGI (LXFL 529 NSCLC): 21.6 µM
TGI (RXF-631 renal): 21.7 µM

O=C1c2ccccc2C(=O)c2c1cc1c(c2[N+](=O)[O-])OCO1
GI50 (PC-3 prostate): 1.29 µM
TGI (PC-3 prostate): 4.66 µM

CC(C)=CC(=O)OC1C2C(C)=CC(O)C(O)C2(C)C2C3(O)OCC24C(CC(=O)OC14)C(C)C3O (centres undefined)
TGI (SN12K1 renal): 0.0909 µM
TGI (DMS 114 small cell lung): 0.0567 µM
TGI (P388/ADR leukemia): 7.09 µM
TGI (P388 leukemia): 0.0201 µM

OC1COC(OCc2ccccc2)C(O)C1O (centres undefined)
TGI (786-0 renal): > 100 µM
TGI (PC-3 prostate): > 100 µM

CC(C)=CCC/C(C)=C/CCC1(C)C=Cc2c(c3ccccc3oc2=O)O1 (centres undefined)
TGI (SN12K1 renal): 30.7 µM
TGI (DMS 114 small cell lung): 29.8 µM
TGI (P388/ADR leukemia): > 62.6 µM
TGI (P388 leukemia): 52.6 µM

C/C(=N\NC(=S)Nc1ccc([N+](=O)[O-])cc1)c1nc2ncccc2[nH]1
TGI (786-0 renal): 11.6 µM
TGI (PC-3 prostate): 16.9 µM

Cc1cccc(CNc2ncnc3[nH]ncc23)c1
TGI (786-0 renal): > 100 µM
TGI (PC-3 prostate): > 100 µM

COc1cc(/C=C/C2=C(C#N)C(=O)OC2(C)C)ccc1O
TGI (RXF-631 renal): > 100 µM

CCCCCCCCCCCCC(O)C(=O)O (centres undefined)
TGI (786-0 renal): > 100 µM
TGI (PC-3 prostate): > 100 µM

O=C(O)CCCc1ccccc1
GI50 (PC-3 prostate): 364 µM and > 1000 µM
TGI (PC-3 prostate): > 1000 µM

C/C(N=NS(=O)(=O)c1ccc(C)cc1)=C1\C=CC=CN1O
TGI (LXFL 529 NSCLC): > 100 µM
TGI (786-0 renal): > 100 µM
TGI (DMS 114 small cell lung): > 100 µM
TGI (RXF-631 renal): > 100 µM

COc1cc(C(=O)C2CC3(CCC2(O)c2cc(OC)c(OC)c(OC)c2)CC(=O)Nc2ccccc2C3=O)cc(OC)c1OC (centres undefined)
TGI (PC-3 prostate): > 100 µM

Cc1cn(C2CC(O)C(Cn3nncc3Cn3ncc(=O)[nH]c3=O)O2)c(=O)[nH]c1=O (centres undefined)
TGI (PC-3 prostate): > 100 µM

c1ccc2cc3c(cc2c1)OP1(Oc2cccc4cccnc24)(O3)Oc2cc3ccccc3cc2O1
TGI (SN12K1 renal): 20.5 µM
TGI (DMS 114 small cell lung): > 23 µM
TGI (P388/ADR leukemia): 6.73 µM
TGI (P388 leukemia): 4.57 µM

Cc1c(C2=NN=C(N=Nc3c(O)cccc3O)/C2=C/c2ccccc2)c(=O)n(-c2ccccc2)n1C
TGI (SN12K1 renal): > 100 µM
TGI (DMS 114 small cell lung): > 100 µM
TGI (P388/ADR leukemia): > 100 µM
TGI (P388 leukemia): > 100 µM

CC1SC(c2ccc(Cl)cc2)N(CCc2cccs2)C1=O (centres undefined)
GI50 (PC-3 prostate): 1.75 µM
TGI (PC-3 prostate): 5.07 µM
